Data on eleven molecules can be found in ChEMBL document CHEMBL1201862, “PubChem BioAssay data set” (2004).

Common to all, as to assay: NCI tumour cell line growth inhibition, 48 h
The test system of test [1] is ACHN.
Test [2] deals with SF-295.
Test [3] concerns MDA-MB-435.
The subject of test [4] is NCI-H23.
Test [5] relates to SN12C.
Test [6] concerns UO-31.
Test [7] deals with HOP-92.
For test [8], the system named is NCI-H460.
Test [9] relates to OVCAR-8.
The test system of test [10] is SW-620.
Test [11] deals with SNB-75.
Test [12] concerns MDA-N.
Test [13] concerns IGROV-1.
The subject of test [14] is MCF7.
The test system of test [15] is T47D.
In test [16] the test system is SF-539.
Test [17] relates to OVCAR-3.
Test [18] concerns TK-10.
Test [19] concerns RPMI-8226.
Test [20] relates to K562.

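Assay format: 96-well plates, 48-hour exposure. The concentration for 50% growth inhibition is given as GI50.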 Active and inactive are the calls of the source. Cut-off read from the data, not from the text of the source: active = GI50 up to about 1.1 µM and inactive = higher. Where only a bound is given, the exact number is not on record here.

Regarding `CCCCCCCCCCCCCCCCCCNC(=S)N/C=C1/C(=O)C=C(C)OC1=O`, the GI50 in [1] was 22.9 µM (inactive); in test [2] it was 23.8 µM (inactive); in test [3] it was 23.7 µM (inactive); in [4] it was 22.8 µM (inactive); in test [5], 37.8 µM (inactive); in test [6], 16.9 µM (inactive). The GI50 in test [7] was 27.3 µM (inactive); in test [8], 13.1 µM (inactive); in test [9], 23.8 µM (inactive); in test [10], 27.4 µM (inactive); in test [11] it was 14.3 µM (inactive); in test [12] it was 36.4 µM (inactive). Further, the GI50 in test [13] was 16.9 µM (inactive); in [14] it was 29.9 µM (inactive); in [15], 31 µM (inactive); in [16], 24.3 µM (inactive); in [17], 32.1 µM (inactive); in [18], 19.2 µM (inactive).
As to `Cc1ccc(-n2cnc3c(N)nc(N)nc32)cc1`, the GI50 in test [1] was > 100 µM (inactive); in test [2], > 100 µM (inactive); in [3], > 100 µM (inactive); in test [4] it was > 100 µM (inactive); in test [5], > 100 µM (inactive); in test [6] it was 58.9 µM (inactive). The GI50 is > 100 µM (inactive) in [7]; > 100 µM (inactive) in [19]; > 100 µM (inactive) in [9]; > 100 µM (inactive) in test [10]; 1.53 µM (inactive) in [11]; > 100 µM (inactive) in test [12]. Also, the GI50 in test [13] is > 100 µM (inactive); in test [14], 66.5 µM (inactive); in test [15], > 100 µM (inactive); in test [16] it was > 100 µM (inactive); in test [17] it was > 100 µM (inactive); in test [18] it was 65.6 µM (inactive).
Consider `Cc1ccc(S(=O)(=O)NN=C2CCCCCCCCCCC2)cc1`, for which the GI50 in test [1], in test [2], in test [3], in [4], in test [5] and in [6] was > 100 µM (inactive) in each case. Besides, the GI50 in test [7], in [19], in test [8], in [9], in test [10] and in test [12] was > 100 µM (inactive) in each case. Also, the GI50 in test [13], in [14], in [15], in test [16], in [17] and in test [20] was > 100 µM (inactive) in each case. Besides, in test [18], the GI50 is > 100 µM (inactive).
Take `CCOC(=O)/C=C(/C(=O)OCC)n1ccc(=O)n(CC(=O)OCC)c1=O`: the GI50 was 0.57 µM (active) in test [1]; 14 µM (inactive) in test [2]; 1.64 µM (inactive) in test [3]; 1.78 µM (inactive) in test [4]; 1.1 µM (active) in [5]; 1.63 µM (inactive) in test [6]. Also, the GI50 in test [7] is 0.251 µM (active); in [8] it was 3.89 µM (inactive); in test [9], 2.39 µM (inactive); in test [10] it was 0.265 µM (active); in test [11] it was 2.48 µM (inactive); in test [12], 2.44 µM (inactive). Moreover, the GI50 in test [13] is 1.61 µM (inactive); in [14] it was 0.471 µM (active); in [15], 0.57 µM (active); in test [16], 2.96 µM (inactive); in test [17], 1.1 µM (active); in test [20] it was 0.348 µM (active). Further, the GI50 in [18] was 1.23 µM (inactive).
As for `O=C1CCCc2ccc3c(c21)CC1(Cc2ccccc2C1)C3`, the GI50 in [1] is 12.2 µM (inactive); in [2], 24.2 µM (inactive); in test [3], 27 µM (inactive); in [4] it was 36.8 µM (inactive); in test [5], 26.1 µM (inactive); in [6], 50.1 µM (inactive). For the same molecule, the GI50 in test [7] is 17 µM (inactive); in test [19] it was 16.9 µM (inactive); in [9] it was 34.2 µM (inactive); in [11], 1.26 µM (inactive); in [12] it was 19 µM (inactive); in test [13], 50.9 µM (inactive). The GI50 was 57.5 µM (inactive) in test [14]; 44.2 µM (inactive) in test [15]; 31.6 µM (inactive) in test [16]; 33.5 µM (inactive) in test [17]; 10.8 µM (inactive) in [20]; 69.5 µM (inactive) in test [18].
In the case of `COC(=O)c1c(O)ccc2c1c1c(n2Cc2ccccn2)C(=O)c2ccccc2C1=O`, the GI50 is 18.5 µM (inactive) in [1]; 20.2 µM (inactive) in test [2]; 86.7 µM (inactive) in test [3]; 57.1 µM (inactive) in [4]; > 100 µM (inactive) in test [5]; 87.9 µM (inactive) in [6]. Further, the GI50 was 26.5 µM (inactive) in [7]; 25.3 µM (inactive) in [19]; 40.3 µM (inactive) in test [8]; 50.4 µM (inactive) in test [9]; 97.5 µM (inactive) in test [12]; 26.4 µM (inactive) in test [13]. Also, the GI50 in [14] was 54.1 µM (inactive); in test [15] it was 32 µM (inactive); in [16], 17.1 µM (inactive); in test [17] it was 18.1 µM (inactive); in [20], > 100 µM (inactive); in test [18], 99.8 µM (inactive).
With `N=C(c1ccc2ccccc2c1)c1ccccc1Cc1ccccc1`, the GI50 was 45.5 µM (inactive) in test [1]; 32.2 µM (inactive) in test [2]; 22.7 µM (inactive) in test [3]; 41.7 µM (inactive) in test [4]; 34.8 µM (inactive) in [5]; 33.4 µM (inactive) in [6]. For the same molecule, the GI50 is 27.9 µM (inactive) in [7]; 38 µM (inactive) in test [19]; 33.6 µM (inactive) in test [8]; 44 µM (inactive) in test [9]; 37.8 µM (inactive) in [10]; 24.8 µM (inactive) in test [12]. In addition, the GI50 in [13] is 35.9 µM (inactive); in test [14], 33.5 µM (inactive); in [15], 17.3 µM (inactive); in test [16] it was 41.5 µM (inactive); in [17] it was 22.1 µM (inactive); in [20], 29.9 µM (inactive). Also, in test [18], the GI50 is > 100 µM (inactive).
On to `CCOC(=O)/C(C(N)=O)=C(O)/C(O)=C/C(=O)c1ccc(Cl)cc1`, for which the GI50 in test [1] was 20 µM (inactive); in [2], 29.2 µM (inactive); in test [3], 23.1 µM (inactive); in test [4], 18.3 µM (inactive); in test [5], 16.5 µM (inactive); in test [6] it was 18.6 µM (inactive). The GI50 was 21.8 µM (inactive) in [7]; 19.8 µM (inactive) in test [19]; 16 µM (inactive) in test [8]; 17.7 µM (inactive) in [9]; 20.5 µM (inactive) in test [10]; 12.8 µM (inactive) in [11]. The GI50 in test [12] was 14.8 µM (inactive); in test [13], 18 µM (inactive); in test [14] it was 23.8 µM (inactive); in test [15], 18.6 µM (inactive); in test [17] it was 21.9 µM (inactive); in test [18], 8.63 µM (inactive).
As to `Cc1n[nH]c(C(F)(F)F)c1/N=N/N(C)C`, the GI50 is 4.72 µM (inactive) in test [1]; 12.1 µM (inactive) in test [2]; 14.5 µM (inactive) in test [3]; 5.73 µM (inactive) in test [4]; 12.5 µM (inactive) in test [5]; 1.61 µM (inactive) in test [6]. Also, the GI50 in test [7] was 8.32 µM (inactive); in test [19], 2.14 µM (inactive); in [8], 10.5 µM (inactive); in test [9], 11.1 µM (inactive); in test [10] it was > 100 µM (inactive); in test [12], > 100 µM (inactive). Further, the GI50 in test [14] is 3.5 µM (inactive); in [15], 2.23 µM (inactive); in [16], 5.28 µM (inactive); in test [17] it was 5.16 µM (inactive); in test [20] it was 2.93 µM (inactive); in test [18], 7.91 µM (inactive).
As for `CC(C)(Br)C(Br)CCC1(C2CO2)CO1` (configuration not stated), the GI50 in test [1], in [2], in test [3], in test [4], in [5] and in test [6] was > 5 µM (inactive) each time. For the same molecule, the GI50 in [7], in test [19], in test [9], in [10], in test [11] and in test [12] was > 5 µM (inactive) throughout. Moreover, the GI50 in test [13], in test [14], in test [15], in test [16], in test [17] and in [20] was > 5 µM (inactive) throughout.
Turning to `O=P1(C(O)/C=C/c2ccccc2)N(Cc2ccccc2)[C@@H]2CCCC[C@H]2N1Cc1ccccc1` (some centres not stated), the GI50 was 3.94 µM (inactive) in [1]; 4.42 µM (inactive) in test [2]; 3.67 µM (inactive) in test [3]; 4.26 µM (inactive) in test [4]; 3.32 µM (inactive) in [5]; 4.55 µM (inactive) in [6]. The GI50 in test [7] is 2.7 µM (inactive); in test [19], 2.14 µM (inactive); in [8] it was 3.55 µM (inactive); in [9], 3.74 µM (inactive); in [10] it was 6.87 µM (inactive); in [11], 12 µM (inactive). The GI50 in [12] was 4.62 µM (inactive); in test [13] it was 3.41 µM (inactive); in test [14] it was 3.24 µM (inactive); in [15], 4.76 µM (inactive); in test [17], 6.64 µM (inactive); in test [20] it was 3.74 µM (inactive). The GI50 in [18] is 7.23 µM (inactive).
